“Also recorded” adds a separate entry of the source.
Key:
[1] = system: SKOV-3 human ovarian cancer cell line; experiment: MTS tumor cell viability assay; type: cell-based; conditions: agonist/antagonist call relative to siramesine
Procedure: The cytotoxicity of compounds shown below was determined using the CellTiter96 Aqueous One Solution Assay (Promega, Madison, Wis.). […] The plate was read at 490 nm in a Victor3 plate reader (PerkinElmer Life and Analytical Sciences, Shelton, Conn.). The EC^50 value, defined as the concentration of the sigma ligand required to inhibit cell viability by 50% relative to untreated cells, was determined from the dose response curve for each cell line.

[2] = molecular target: T1, sigma-1 receptor (Cavia porcellus, UniProt Q60492); experiment: Competitive radioligand binding assay 2, guinea pig brain membrane homogenates; conditions: read-out: Sigma-1 (Ki, nM) ±mean SEM
T1 construct: from tissue; host or cells: guinea pig brain membrane homogenates
T1 sequence (Q60492 whole entry): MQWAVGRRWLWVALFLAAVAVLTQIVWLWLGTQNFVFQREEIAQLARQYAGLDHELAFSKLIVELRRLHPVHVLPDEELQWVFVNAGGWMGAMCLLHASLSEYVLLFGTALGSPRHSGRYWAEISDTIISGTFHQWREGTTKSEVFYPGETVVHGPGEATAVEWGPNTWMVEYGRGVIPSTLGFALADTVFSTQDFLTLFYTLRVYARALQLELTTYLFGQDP
Procedure: The affinity of candidate sigma-2 ligand compounds at sigma-1 and sigma-2 receptors was also determined by displacement of different known labeled sigma-2 or sigma-1 ligands. Filtration assays were conducted according the previously published procedure (Xu, et al., 2005). Test compounds were dissolved in N,N-Dimethylformamide (DMF), dimethyl sulfoxide (DMSO) or ethanol and then diluted in 50 mM Tris-HCl pH 7.4 buffer containing 150 mM NaCl and 100 mM EDTA. Membrane homogenates were made from guinea pig brain for sigma-1 binding assay and rat liver for sigma-2 binding assay. Membrane homogenates were diluted with 50 mM Tris-HCl buffer, pH 8.0 and incubated at 25° C. in a total volume of 150 uL in 96 well plates with the radioligand and test compounds with concentrations ranging from 0.1 nM to 10 uM. […] A Wallac 1450 MicroBeta liquid scintillation counter (Perkin Elmer, Boston, Mass.) was used to quantitate the bound radioactivity.
The binding affinity, Ki values was calculated using the method of Cheng and Prusoff. […]

[3] = system: sigma-2 receptor; experiment: Autoradiography, displacement of [3H]-RHM-1 in brain sections; type: binding; conditions: 1 μM; monkey frontal cortex, monkey hippocampus, human temporal cortex
Procedure: Brain sections in 20 μM thickness from rats, rhesus monkeys and postmortem human brains were cut using with a Microm cryotome and mounted on superfrost plus glass slides (Fisher Scientific, Pittsburgh, Pa.)., and serial sections through the brain regions of cerebral cortex and hippocampus were used in this study.
Slides were dried and made conductive by coating with a copper foil tape on the free side and then placed in the gas chamber [mixture of argon and triethylamine (Sigma-Aldrich, USA)] of a gaseous detector, the Beta Imager 2000Z Digital Beta Imaging System (Biospace, France). […] [^3H]Microscale (American Radiolabeled Chemicals, Inc., St. Louis, Mo.) was counted at the same time as a reference for total radioactivity quantitative analysis, i.e., to convert the cpm/mm2 to nCi/mg tissue. Quantitative analysis was performed with the program Beta-Image Plus (BioSpace, France) for the anatomical regions of interest (ROI), i.e., to obtain the quantitative radioactivity uptake (cpm/nlln2) in the regions of cortex and hippocampus. The binding density was normalized to fmol/mg tissue based on the specific activities of the corresponding radioligands and calibration curve from the standard [^3H]Microscale.

[4] = system: Abeta oligomer-induced memory deficits in wt C57BL/6 mice; experiment: Contextual fear conditioning after intrahippocampal Abeta oligomer injection; type: in vivo, mouse
Procedure: Abeta oligomers (single 200 nanoMolar intrahippocampal injection) produced significant deficits in memory formation in 3-4 month old male wt C57BL/6 mice (N=16) compared to vehicle (N=18).
Several pharmaceutical companies use this same model in their discovery efforts. Contextual fear conditioning is an accepted model of associative memory formation which correlates to human cognitive function and specifically the creation of new (Delgado '06). Abeta oligomers are injected into the hippocampus of wild-type animals immediately before conditioning training and memory is assessed via freezing behavior after 24 hours. Details are provided in Example 9. […] This model system was chosen because intrahippocampal administration of oligomers allows rapid comparative assessment of compound activity and off-target toxicity. The results are shown graphically in FIG. 4.
Compound II was tested in an animal model of a memory-dependent behavioral task known as fear conditioning. The study protocol was designed based on published protocols (See e.g. Puzzo D, Privitera L, Leznik E, Fà M, Staniszewski A, Palmeri A, Arancio O. Picomolar amyloid-beta positively modulates synaptic plasticity and memory in hippocampus. J. Neurosci. 2008 Dec. 31; 28(53):14537-45.). The formation of contextual memories is dependent upon the integrity of medial temporal lobe structures such as the hippocampus. […]

[5] = system: CYP2D6, CYP3A4, CYP2C19; experiment: in vitro
[6] = system: hAPP (Swedish/London) transgenic mice; conditions: 0.5 mg/kg/day subcutaneous minipump, one month, 8 month old female mice
Procedure: In this study, rather than preventing deficits from occurring, deficits that were already established were treated. These studies were performed pursuant to a service contract by scientists who were blind to the experimental conditions. The compound was infused at 0.5 and 0.1 mg/kg/day for one month in 8 month old female mice via subcutaneous minipump and cognitive performance was tested in the Morris water maze, a test of hippocampal-based spatial learning and memory.
The swim speed was analyzed as part of the Morris measurements to determine if there were any motor or motivational deficits. Our vehicle is a 5% DMSO/5% Solutol, 90% saline mixture. The transgenic animals treated with a low dose (0.1 mg/kg/day) and a high dose (0.5 mg/kg/day) of compound. The average of three daily trials on each of four consecutive days were determined.
Escape latency measurements from the Morris water test were taken.
During the final four days of treatment, mice were tested to find the hidden platform in three trials/day. A computerized tracking system automatically quantified escape latency, or swim length.

[7] = molecular target: T2, sigma 2 (agonist radioligand) (Rattus norvegicus, UniProt Q5U3Y7); experiment: Receptor binding assay, displacement of known radioligand; conditions: read-out: % Inhibition of Control
T2 sequence (Q5U3Y7 1-176): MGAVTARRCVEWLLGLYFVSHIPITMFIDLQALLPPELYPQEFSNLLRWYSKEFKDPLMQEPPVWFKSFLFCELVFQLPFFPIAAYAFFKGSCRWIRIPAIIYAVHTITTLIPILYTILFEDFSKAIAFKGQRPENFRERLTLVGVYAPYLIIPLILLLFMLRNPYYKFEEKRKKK

[8] = system: caspase-3 activity in SKOV-3 human ovarian cancer cells; experiment: Caspase-3 activity assay in tumor cells; type: cell-based

For `COc1cc(CCC(C)NCc2ccc(C(F)(F)F)cc2)ccc1O` (stereo not shown) [Compound II], the Action [1] was “Antagonist”, the Ki [2] was 108 ± 19.9 nM and the “Displacement of 18.4 nM [3H]-RHM-1” value [3] was “partially displace”. The “Memory performance when dosed alone” value ([4]; no Abeta oligomer) was “no effect of compounds alone”, the “Abeta oligomer-induced memory deficits (freezing behavior 24 hours post-training)” value ([4]; single intrahippocampal injection one hour prior to oligomers (2 microMolar, b68; 2 pmol dose)) was “completely blocked oligomer-mediated memory deficits; also recorded: eliminated memory deficits” and the inhibition at 10 µM [5] was 46 to 73%. The “Cognitive performance, escape latency” value [6] was “capable of improving cognitive performance”, the inhibition at 10 µM [7] was 89% and the “Block of caspase-3 activation caused by sigma-2 receptor agonist SV-119” value [8] was “do not block caspase-3 activation”. The “Induction of caspase-3 activity” value [8] was “did not induce caspase-3 activity”.

— patent US20170197977A9, “COMPOSITIONS AND METHODS FOR TREATING NEURODEGENERATIVE DISEASE” (COGNITION THERAPEUTICS, INC., priority 2011, published 2017)
